Test results: patent US20090093501A1, “Heterocyclic antiviral compounds” (Roche Palo Alto LLC, priority 2007, published 2009)

Columns and labels:
CCR5 = target: T1, CCR5 (Homo sapiens, UniProt P51681); assay: CCR5-mediated cell-cell fusion (CCF) assay; format: cell-based; details: Hela-R5 cells co-cultured with CEM-NKr-CCR5-Luc cells, 24 hrs, luciferase readout
T1 construct: host or cells: CEM-NKr-CCR5-Luc cells, co-cultured with Hela-R5 cells expressing gp160 and HIV-1 Tat
Protocol: CCF assay was performed as described before (C. Ji, J. Zhang, N. Cammack and S. Sankuratri, J. Biomol. Screen. 2006 11(6):652-663). Hela-R5 cells (express gp160 from R5-tropic virus and HIV-1 Tat) were plated in 384 well white culture plates (BD Bioscience, Palo Alto, Calif.) at 7.5×10^3 cells per well in phenol red-free Dulbecco's Modified Eagle Medium (DMEM) supplemented with 10% FBS, 1× Pen-Strep, 300 μg/mL G418, 100 μg/mL hygromycin, and 1 μg/mL Doxycycline (Dox) (BD Bioscience, Palo Alto, Calif.), using Multimek (Beckman, Fullerton, Calif.) and incubated at 37° C. overnight to induce the expression of gp160. Ten μL diluted compounds in medium containing 5% DMSO were added to the cells, followed by the addition of CEM-NKr-CCR5-Luc (obtained from NIH AIDS Research & Reference Reagents Program) that expresses CD4 and CCR5 and carries a […] long terminal repeat (LTR)-driven luciferase reporter gene at 1.5×10^4 cells/15 μL/well and incubated for 24 hrs. At the end of co-culture, 15 μL of Steady-Glo luciferase substrate was added into each well, and the cultures were sealed and gently shaken for 45 min. The luciferase activity were measured for 10 sec per well as luminescence by using 16-channel TopCount NXT (PerkinElmer, Shelton, Conn.) with 10 min dark adaptation and the readout is count per second (CPS). For the drug interaction experiments, small molecule compounds or antibodies were serially diluted in serum-free and phenol red-free RPMI containing 5% DMSO (CalBiochem, La Jolla, Calif.) and 1× Pen-Strep5 μL each of the two diluted compound or mAb to be tested for drug-drug interactions were added to the Hela-R5 cells right before the addition of target cells. Representative results are compiled in TABLE II

T1 sequence (P51681 whole entry, the tested form may be a part): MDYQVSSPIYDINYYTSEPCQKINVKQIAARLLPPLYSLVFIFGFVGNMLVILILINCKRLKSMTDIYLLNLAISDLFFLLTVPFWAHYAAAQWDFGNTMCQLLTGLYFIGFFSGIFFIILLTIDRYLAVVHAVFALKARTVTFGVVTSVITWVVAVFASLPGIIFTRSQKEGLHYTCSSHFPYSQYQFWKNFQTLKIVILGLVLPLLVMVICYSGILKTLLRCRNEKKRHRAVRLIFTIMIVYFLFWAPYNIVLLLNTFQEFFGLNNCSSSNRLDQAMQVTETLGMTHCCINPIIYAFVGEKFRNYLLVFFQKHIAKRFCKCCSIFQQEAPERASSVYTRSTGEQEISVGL

Row | IC50 (CCR5) | melting point | Structure (SMILES)
1 | 9.8 nM | 113 to 120 °C | CCCCC1CN(S(=O)(=O)C2CCN(C(C)=O)CC2)CCC12CCN(C1(C)CCN(C(=O)c3c(C)ncnc3C)CC1)CC2 (stereo not shown) [I-25]
2 | 9.5 nM | – | CCCCC1C(=O)N(CC2CCOCC2)CCC12CCN(C1(C)CCN(C(=O)c3c(C)ncnc3C)CC1)CC2 (stereo not shown) [I-3, 1-Butyl-9-[1-(4,6-dimethyl-pyrimidine-5-carbonyl)-4-methyl-piperidin-4-yl]-3-(tetrahydro-pyran-4-ylmethyl)-3,9-diaza-spiro[5.5]undecan-2-one]
3 | 7.8 nM | – | CCCCC1C(=O)N(CC2CCN(C(=O)OC)CC2)CCC12CCN(C1(C)CCN(C(=O)c3c(C)ncnc3C)CC1)CC2 (stereo not shown) [I-19, 4-{1-Butyl-9-[1-(4,6-dimethyl-pyrimidine-5-carbonyl)-4-methyl-piperidin-4-yl]-2-oxo-3,9-diaza-spiro[5.5]undec-3-ylmethyl}-piperidine-1-carboxylic acid methyl ester]
